Measured values reported in PMC6188150, “A small molecule regulator of tissue transglutaminase conformation inhibits the malignant phenotype of cancer cells” (Oncotarget, 2018).

Biological target: T1, tissue transglutaminase (tTG) (Homo sapiens, UniProt P21980)
T1 construct: gene TGM2; recombinant tTG
T1 sequence (P21980 2-687): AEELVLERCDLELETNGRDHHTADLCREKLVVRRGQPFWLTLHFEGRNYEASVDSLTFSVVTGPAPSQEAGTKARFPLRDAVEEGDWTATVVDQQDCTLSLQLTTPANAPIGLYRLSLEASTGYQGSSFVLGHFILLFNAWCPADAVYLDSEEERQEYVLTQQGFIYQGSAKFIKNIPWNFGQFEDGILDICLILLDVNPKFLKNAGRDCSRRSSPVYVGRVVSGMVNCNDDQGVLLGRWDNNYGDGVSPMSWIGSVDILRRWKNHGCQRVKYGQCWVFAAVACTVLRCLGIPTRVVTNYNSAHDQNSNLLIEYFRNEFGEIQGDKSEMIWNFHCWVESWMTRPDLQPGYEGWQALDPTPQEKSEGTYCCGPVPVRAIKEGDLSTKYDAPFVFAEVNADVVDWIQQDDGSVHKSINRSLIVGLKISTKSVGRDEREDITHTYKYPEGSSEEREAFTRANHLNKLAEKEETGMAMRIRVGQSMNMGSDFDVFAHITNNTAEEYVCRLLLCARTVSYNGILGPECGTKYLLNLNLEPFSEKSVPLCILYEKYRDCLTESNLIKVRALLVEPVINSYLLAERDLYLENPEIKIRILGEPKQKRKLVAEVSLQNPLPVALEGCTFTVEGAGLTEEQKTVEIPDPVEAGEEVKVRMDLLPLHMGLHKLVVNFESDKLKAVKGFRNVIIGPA
Experiment: bodipy-GTP-γS fluorescence binding assay after CaCl2 then EDTA; also BPA/NNDC crosslinking inhibition and trypsin susceptibility

Cc1ccc(N/C=C2/C(=O)NC(=O)N(c3ccccc3)C2=O)cc1CN1C(=O)c2ccccc2C1=O [TTGM 5826]
EC50: 20 µM
